Data set [1] deals with T1, G6PD-L-6PGL (fusion with linker).
T1 construct: gene ZWF1
To be noted: read-out: G6PD-L-6PGL, 100 mM Tris-HCl pH 8.0, 10 mM MgCl2, 25 °C, G6PD domain.

Data set [2] has as its system T2, G6PD-6PGL (linker-less fusion).
T2 construct: gene ZWF1
The conditions noted are these: read-out: G6PD-6PGL, 100 mM Tris-HCl pH 8.0, 10 mM MgCl2, 25 °C, G6PD domain.

Substrate in the data set “purified protein”: NC(=O)c1ccc[n+]([C@@H]2O[C@H](COP(=O)(O)OP(=O)(O)OC[C@H]3O[C@@H](n4cnc5c(N)ncnc54)[C@H](OP(=O)(O)O)[C@@H]3O)[C@@H](O)[C@H]2O)c1
Briefly: purified protein. To be noted: G6P held constant, 100 mM Tris-HCl pH 8.0, 10 mM MgCl2, 25 °C.

Where a chain is given by its changes, count along the chain named. Names and notes keep the numbering of the source. Read-outs that look alike come from different tables or passages of the source.

Turning to `NC(=O)c1ccc[n+]([C@@H]2O[C@H](COP(=O)(O)OP(=O)(O)OC[C@H]3O[C@@H](n4cnc5c(N)ncnc54)[C@H](OP(=O)(O)O)[C@@H]3O)[C@@H](O)[C@H]2O)c1` [NADP^+], the Km in data set [1] (G6P held constant) turned out to be 5.6 ± 0.2 µM; in data set [2] (G6P held constant), 2600 ± 400 nM.

With `O=P(O)(O)OC[C@H]1OC(O)[C@H](O)[C@@H](O)[C@@H]1O` (stereo partly drawn) [glucose 6‐phosphate], the Km is 2.3 ± 0.2 µM in data set [1] (NADP+ held constant) and 600 nM in data set [2] (NADP+ held constant).

B1: ScG6PD (G6PD, ZWF1) (Saccharomyces cerevisiae S288C) (protein)
chain: MSEGPVKFEKNTVISVFGASGDLAKKKTFPALFGLFREGYLDPSTKIFGYARSKLSMEEDLKSRVLPHLKKPHGEADDSKVEQFFKMVSYISGNYDTDEGFDELRTQIEKFEKSANVDVPHRLFYLALPPSVFLTVAKQIKSRVYAENGITRVIVEKPFGHDLASARELQKNLGPLFKEEELYRIDHYLGKELVKNLLVLRFGNQFLNASWNRDNIQSVQISFKERFGTEGRGGYFDSIGIIRDVMQNHLLQIMTLLTMERPVSFDPESIRDEKVKVLKAVAPIDTDDVLLGQYGKSEDGSKPAYVDDDTVDKDSKCVTFAAMTFNIENERWEGVPIMMRAGKALNESKVEIRLQYKAVASGVFKDIPNNELVIRVQPDAAVYLKFNAKTPGLSNATQVTDLNLTYASRYQDFWIPEAYEVLIRDALLGDHSNFVRDDELDISWGIFTPLLKHIERPDGPTPEIYPYGSRGPKGLKEYMQKHKYVMPEKHPYAWPVTKPEDTKDN
Regarding B1, the Km in the data set “purified protein” was 0.6 ± 0.1 µM.

B2: ScG6PD (G6PD, ZWF1) (Saccharomyces cerevisiae S288C; N403D) (protein)
chain: B1 chain with N403D
Regarding B2, in “purified protein”, the Km was determined as 0.8 ± 0.1 µM.

For the origin of these results see PMC10909971, “Glucose 6‐phosphate dehydrogenase variants increase NADPH pools for yeast isoprenoid production” (FEBS Open Bio, 2024).
